Counter-ions that a name gives are not always drawn.
Key:
[1] = system: Pure BAO obtained from swine plasma; test: Inhibition type on BAO (Lineweaver-Burk); assay type: biochemical; parameters: key: competitive inhibition; nc: not competitive inhibition; mixed inhibition; conditions: 1/v vs. 1/s, 5 substrate concentrations
Description: (§1) Pure BAO obtained from swine plasma by the procedure disclosed by F. Buffoni and H. Blaschko (Proc. Roy. Soc. B 161, 153 (1964)); DAO from swine kidney, as obtained and purified by the Sigma (St. Louis, Md., USA, 0.25 U/mg); purified LAO from swine aorta obtained by the procedure disclosed by F. Buffoni and L. Raimondi (Agents and Actions, 11, 38 (1981)). Rat liver mitochondria obtained by the procedure disclosed by G. W. Schneider and G. H. Hogeboon (J. Biol. Chem., 183, 123 (1950)) were employed as the source of MAO.
The inhibition type was evaluated by studying the effect of the compound on the enzymic rate (v) at 5 different concentrations of the substrate (s) and plotting the results by the classical procedure as 1/v vs. 1/s according to Lineweaver-Burk.

[2] = system: MAO (rat liver mitochondria); test: Inhibition of monoaminoxidases (MAO), isotopic procedure with 14C-beta-phenylethylamine; assay type: biochemical; conditions: 30 minutes pre-incubation; 14C-beta-phenylethylamine 1.7 mM; mean ± s.e.
Procedure: The quantitative determination of monoaminoxidases (MAO's) is carried out by the same procedure as the determination of BAO's, but ^14 C-beta-phenylethylamine is employed at the final concentration of 1.7 mM.
as §1
(§2) IC50 (M)=The molar concentration of the inhibitor that inhibits 50% of the enzyme activity at a saturating concentration of the substrate. Said concentration is calculated from curves obtained by pre-incubation of the compound for 30 minutes (at 6 different concentrations) with the enzyme before adding the substrate and determining the enzymic rate.
(§3) The repetition of the experiments allows to obtain the average values of the IC50 (M) as well as the relative standard errors.

[3] = system: Pure BAO obtained from swine plasma; test: Compound as the substrate of BAO (production of H2O2); assay type: biochemical; parameters: key: the compound is the substrate; ns: the compound is not the substrate; conditions: 37° C., air
Procedure: (§4) The oxidation of the compound is estimated in all cases by measuring the production of H2 O2. Such operation is carried out within a temperature-controlled bath set at 37° C. and stirred, in the presence of air. The production-of H2 O2 is quantitatively determined by the method of H. P. Lehman, K. H. Schosinsky, M. F. Beeler (Clin. Chem., 20, 1564 (1974)).
as §1

[4] = system: Pure BAO obtained from swine plasma; test: Reversibility of BAO inhibition by dialysis; assay type: biochemical; parameters: key: reversible inhibition; irreversible inhibition; pr: partially reversible inhibition; conditions: dialysis of the solution
Description: as §1
The reversibility of the effect was evaluated showing that the inhibition caused by a certain concentration of the inhibitor (for instance the IC50 value) would be reverted by dialysis of the solution.

[5] = molecular target: T1, DAO from swine kidney (Sus scrofa, UniProt Q9TRC7); test: Compound as the substrate of DAO (production of H2O2); assay type: biochemical; parameters: key: the compound is the substrate; ns: the compound is not the substrate; conditions: 37° C., air
T1 construct: DAO from swine kidney, as obtained and purified by the Sigma; purchased Sigma (St. Louis); host or cells: swine kidney
T1 sequence (Q9TRC7 25-755): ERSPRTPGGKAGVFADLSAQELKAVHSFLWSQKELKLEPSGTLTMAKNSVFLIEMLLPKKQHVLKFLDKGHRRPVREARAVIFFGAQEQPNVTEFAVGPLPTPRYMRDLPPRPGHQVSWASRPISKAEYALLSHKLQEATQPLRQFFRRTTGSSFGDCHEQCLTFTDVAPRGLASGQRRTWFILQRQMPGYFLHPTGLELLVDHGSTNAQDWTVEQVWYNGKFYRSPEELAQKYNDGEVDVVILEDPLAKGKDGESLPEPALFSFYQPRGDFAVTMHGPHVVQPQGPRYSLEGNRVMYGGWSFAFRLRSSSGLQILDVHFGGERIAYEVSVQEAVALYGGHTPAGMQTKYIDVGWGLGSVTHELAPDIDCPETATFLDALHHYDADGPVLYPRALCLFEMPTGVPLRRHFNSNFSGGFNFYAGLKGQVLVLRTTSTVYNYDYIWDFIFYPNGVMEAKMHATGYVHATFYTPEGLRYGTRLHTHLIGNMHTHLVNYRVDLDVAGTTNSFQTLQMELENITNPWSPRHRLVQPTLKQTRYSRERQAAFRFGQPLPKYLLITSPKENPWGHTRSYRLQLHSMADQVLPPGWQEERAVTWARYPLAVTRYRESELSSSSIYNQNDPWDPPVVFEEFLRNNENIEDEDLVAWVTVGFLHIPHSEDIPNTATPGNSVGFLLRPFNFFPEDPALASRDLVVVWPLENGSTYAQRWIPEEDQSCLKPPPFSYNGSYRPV
Procedure: as §4, §1

[6] = system: MAO (rat liver mitochondria); test: Compound as the substrate of MAO (production of H2O2); assay type: biochemical; parameters: key: the compound is the substrate; ns: the compound is not the substrate; conditions: 37° C., air
Procedure: as §4, §1

[7] = molecular target: Pure BAO obtained from swine plasma; test: Inhibition of benzylaminoxidase (BAO), isotopic procedure with 14C-benzylamine; assay type: biochemical; conditions: for IC50: 30 minutes pre-incubation, 14C-benzylamine 1,7 mM (saturating), mean ± s.e.; for Activity as inhibitors of BAO (in words): compounds already known in the literature, prepared again
Procedure: The quantitative determination of benzylaminoxidases (BAO's) is carried out by the isotopic procedure disclosed by F. Buffoni and G. Ignesti (Biochem. J.; 145, 369 (1975)) employing ^14 C-benzylamine as the substrate at the final concentration of 1,7 mM.
as §1, §2, §3

[8] = molecular target: T1, DAO from swine kidney; test: Inhibition of diaminoxidase (DAO), isotopic method with 14C-putrescine; assay type: biochemical; conditions: 30 minutes pre-incubation; 14C-putrescine 1 mM; mean ± s.e.
Procedure: The quantitative determination of the diaminoxidases (DAO's) is performed by the isotopic method disclosed by J. Kusche, H. Richter, R. Hesterberg, J. Schmidt, W. Lorenz, (Agents and Actions, 3, 148-156 (1973)) employing ^14 C-putrescine as the substrate at the final concentration of 1 mM.
as §1, §2, §3

[9] = molecular target: T2, purified LAO from swine aorta (Sus scrofa, UniProt P45845); test: Inhibition of lysyloxidase (LAO), isotopic procedure with 3H-elastine; assay type: biochemical; conditions: 30 minutes pre-incubation; 3H-elastine 0.150 mg/ml
T2 construct: purified LAO from swine aorta; from tissue; host or cells: swine aorta, purified by the procedure of Buffoni and Raimondi (1981)
T2 sequence (P45845 1-249): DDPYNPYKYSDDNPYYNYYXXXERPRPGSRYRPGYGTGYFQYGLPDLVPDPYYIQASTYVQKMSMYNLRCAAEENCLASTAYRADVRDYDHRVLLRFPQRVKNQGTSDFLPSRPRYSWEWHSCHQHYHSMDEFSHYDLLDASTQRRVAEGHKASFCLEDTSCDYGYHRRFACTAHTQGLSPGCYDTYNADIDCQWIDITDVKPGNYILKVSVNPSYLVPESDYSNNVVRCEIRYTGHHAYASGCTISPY
Procedure: The quantitative determination of lysyloxidase (LAO) is carried out by the isotopic procedure of […]. Biochem., 77, 141 (1977)) employing as the substrate ^3 […] prepared as disclosed by […], and G. R. Martin (Proc. Natl. Acad. Sci. USA 61, 708 (1968)) and isolated as disclosed by […]. Smith (Biochemistry, 8, 2940 (1969)). […] Pure BAO obtained from swine plasma by the procedure disclosed by F. Buffoni and H. Blaschko (Proc. Roy. Soc. B 161, 153 (1964)); DAO from swine kidney, as obtained and purified by the Sigma (St. Louis, Md., USA, 0.25 U/mg); purified LAO from swine aorta obtained by the procedure disclosed by F. Buffoni and L. Raimondi (Agents and Actions, 11, 38 (1981)). Rat liver mitochondria obtained by the procedure disclosed by G. W. Schneider and […]. Biol. Chem., 183, 123 (1950)) were employed as the source of MAO. IC50 (M)=The molar concentration of the inhibitor that inhibits 50% of the enzyme activity at a saturating concentration of the substrate. Said concentration is calculated from curves obtained by pre-incubation of the compound for 30 minutes (at 6 different concentrations) with the enzyme before adding the substrate and determining the enzymic rate. The repetition of the experiments allows to obtain the average values of the IC50 (M) as well as the relative standard errors.

[10] = system: BAO's; conditions: background statement, cited from earlier work

Compound	BAO: inhibition type [1]	IC50 [2] [µM]	BAO: compound as the substrate [3]	BAO: reversibility of the inhibition [4]	DAO: compound as the substrate [5]	MAO: compound as the substrate [6]	IC50 [7] [µM]	IC50 [8] [µM]	Activity as inhibitors of BAO (in words) [7]	IC50 [9] [µM]	IC50 ([10]; read-out: I50 on BAO's) [µM]	Kind of inhibition of BAO's ([10]; high concentrations)
COCc1cccc(COC)c1CN.Cl [Example 10, 2,6-bis(methoxymethyl)benzylamine hydrochloride]	m	> 1000	ns	pr	s	ns	–	–	–	–	–	–
CCCCOc1cccc(OCCCC)c1CN.Cl [Example 4, 2,6-di(n-butoxy)benzylamine hydrochloride]	nc	> 1000	ns	pr	s	ns	0.14	–	–	–	–	–
Cl.NCc1ccccc1O [Example 5, 2-hydroxybenzylamine hydrochloride]	–	> 1000	s	–	s	ns	1000	1000	active indeed, though at a low degree	–	–	–
NCc1c(O)cccc1O [Example 8, 2,6-dihydroxybenzylamine hydrochloride]	–	> 1000	–	–	–	–	1000	–	–	–	–	–
Cl.NCc1c(OCCO)cccc1OCCO [Example 13, 2,6-bis(hydroxyethoxy)benzylamine hydrochloride]	m	> 1000	ns	pr	s	ns	2.6	–	–	–	–	–
CCc1cccc(CC)c1CN.Cl [Example 11, 2,6-diethylbenzylamine hydrochloride]	nc	> 1000	ns	r	s	s	–	–	–	–	–	–
CCCc1cccc(CCC)c1CN.Cl [Example 12, 2,6-di-n-propylbenzylamine hydrochloride]	nc	1000	ns	r	s weak	s	–	1000	–	1000	–	–
Cl.NCc1ccccc1CO [Example 6, 2-hydroxymethylbenzylamine hydrochloride]	–	> 1000	s	–	s	ns	1000	–	active indeed, though at a low degree	–	–	–
CCOc1cccc(OCC)c1CN.Cl [Example 1, 2,6-diethoxybenzylamine hydrochloride]	m	6400 ± 0.5	ns	pr	s	ns	0.18	12500 ± 1	–	–	–	–
CC(C)Oc1cccc(OC(C)C)c1CN.Cl [Example 3, 2,6-diisopropoxybenzylamine hydrochloride]	–	> 1000	s weak	–	s weak	s weak	> 1000	–	–	–	–	–
CCCOc1cccc(OCCC)c1CN.Cl [Example 2, 2,6-di(n-propoxy)benzylamine hydrochloride]	m	> 1000	ns	pr	s weak	s	–	–	–	–	–	–
COCOc1cccc(OCOC)c1CN.Cl [Example 9, 2,6-bis(methoxymethoxy)benzylamine hydrochloride]	m	22000 ± 60	s	r	s	ns	0.95	> 10000	–	> 1000	–	–
COc1cccc(OC)c1CN.Cl [Example 7, 2,6-di-methoxybenzylamine hydrochloride]	m	190	ns	r	s	s weak	120	5600 ± 0.3	active indeed, though at a low degree	–	–	–
N#CCCN [beta-aminopropionitrile]	–	–	–	–	–	–	–	–	–	–	> 10000	irreversibly
